# Laboratory results from patent US10259818B2, “Bicyclic azaheterocyclobenzylamines as PI3K inhibitors” (Incyte Corporation, priority 2012, dated 2019).
# Where a name gives a salt, the structure may show the parent alone.
# Tested on: SUDHL-6 cell line (diffuse large B cell lymphoma)
# Assay: SUDHL-6 cell proliferation assay (Example B3)
# Assay type: cell-based
# Conditions: Homo sapiens, SU-DHL-6, 72 h, SUDHL-6 cells, 3 days, Cell Titer-GLO
# Experimental: Example B3: SUDHL-6 Cell Proliferation Assay
# SUDHL-6 cell line (diffuse large B cell lymphoma) was purchased from ATCC (Manassas, Va.) and maintained in the culture medium recommended (RPMI and 10% FBS). To measure the anti-proliferation activity of the compounds through ATP quantitation, the SUDHL-6 cells was plated with the culture medium (5000 cells/well/per 200 μl) into 96-well polystyrene clear black tissue culture plate (Greiner-bio-one through VWR, NJ) in the presence or absence of a concentration range of test compounds. After 3 days, Cell Titer-GLO Luminescent (Promega, Madison, Wis.) cell culture agent was added to each well for 10 minutes at room temperature to stabilize the luminescent signal. This determines the number of viable cells in culture based on quantitation of the ATP present, which signals the presence of metabolically active cells. Luminescence was measured with the TopCount 384 (Packard Bioscience through Perkin Elmer, Boston, Mass.). […] IC50 data for the Examples is presented in Table 4 determined by the assay of Example B3.
row,SMILES,IC50 [nM]
1,"Cc1c(Cl)cc(C(C)n2nc(C)c3c(N)ncnc32)c2c1CN(C(C)C)CCO2 (stereo not shown) [Example 10, 1-[1-(7-Chloro-4-isopropyl-6-methyl-2,3,4,5-tetrahydro-1,4-benzoxazepin-9-yl)ethyl]-3-methyl-1H-pyrazolo[3,4-d]pyrimidin-4-amine bis(trifluoroacetate)]",≤ 500
2,"Cc1c(Cl)cc(C(C)n2nc(C)c3c(N)ncnc32)c2c1CN(S(C)(=O)=O)CCO2 (stereo not shown) [Example 13, 1-{1-[7-Chloro-6-methyl-4-(methylsulfonyl)-2,3,4,5-tetrahydro-1,4-benzoxazepin-9-yl]ethyl}-3-methyl-1H-pyrazolo[3,4-d]pyrimidin-4-amine Trifluoroacetate]",≤ 500
3,"Cc1c(Cl)cc(C(C)n2nc(C)c3c(N)ncnc32)c2c1CN(c1cnccn1)CCO2 (stereo not shown) [Example 24, 1-[1-(7-Chloro-6-methyl-4-pyrazin-2-yl-2,3,4,5-tetrahydro-1,4-benzoxazepin-9-yl)ethyl]-3-methyl-1H-pyrazolo[3,4-d]pyrimidin-4-amine bis(trifluoroacetate)]",500 to 1000
4,"CC(=O)N1CC(N2CCOc3c(C(C)n4nc(C)c5c(N)ncnc54)cc(Cl)c(C#N)c3C2)C1 (stereo not shown) [Example 46, 4-(1-Acetylazetidin-3-yl)-9-[1-(4-amino-3-methyl-1H-pyrazolo [3,4-d]pyrimidin-1-yl)ethyl]-7-chloro-2,3,4,5-tetrahydro-1,4-benzoxazepine-6-carbonitrile]",≤ 500
5,"Cc1nn(C(C)c2cc(Cl)c(C#N)c3c2OCCN(C2CN(CCO)C2)C3)c2ncnc(N)c12 (stereo not shown) [Example 47, 9-[1-(4-amino-3-methyl-1H-pyrazolo[3,4-d]pyrimidin-1-yl)ethyl]-7-chloro-4-[1-(2-hydroxyethyl)azetidin-3-yl]-2,3,4,5-tetrahydro-1,4-benzoxazepine-6-carbonitrile]",≤ 500
6,"Cc1nn(C(C)c2cc(Cl)c(C#N)c3c2O[C@@H](C)CN(C2CN(CCO)C2)C3)c2ncnc(N)c12 (stereo partly drawn) [Example 56, (2S)-9-[1-(4-Amino-3-methyl-1H-pyrazolo[3,4-d]pyrimidin-1-yl)ethyl]-7-chloro-4-[1-(2-hydroxyethyl)azetidin-3-yl]-2-methyl-2,3,4,5-tetrahydro-1,4-benzoxazepine-6-carbonitrile]",≤ 500
7,"Cc1nn(C(C)c2cc(Cl)c(C#N)c3c2OCCN(CCO)C3)c2ncnc(N)c12 (stereo not shown) [Example 58, 9-[1-(4-Amino-3-methyl-1H-pyrazolo[3,4-d]pyrimidin-1-yl)ethyl]-7-chloro-4-(2-hydroxyethyl)-2,3,4,5-tetrahydro-1,4-benzoxazepine-6-carbonitrile]",≤ 500
8,"CC(=O)N1CC(N2Cc3c(F)c(Cl)cc(C(C)n4nc(C)c5c(N)ncnc54)c3OC(C)C2=O)C1 (stereo not shown) [Example 71, 4-(1-Acetylazetidin-3-yl)-9-[1-(4-amino-3-methyl-1H-pyrazolo[3,4-d]pyrimidin-1-yl)ethyl]-7-chloro-6-fluoro-2-methyl-4,5-dihydro-1,4-benzoxazepin-3(2H)-one]",500 to 1000
9,"Cc1nn(C(C)c2cc(Cl)c(F)c3c2OC(C)CN(C2CN(S(C)(=O)=O)C2)C3)c2ncnc(N)c12 (stereo not shown) [Example 75, 1-(1-{7-chloro-6-fluoro-2-methyl-4-[1-(methylsulfonyl)azetidin-3-yl]-2,3,4,5-tetrahydro-1,4-benzoxazepin-9-yl}ethyl)-3-methyl-1H-pyrazolo[3,4-d]pyrimidin-4-amine]",≤ 500
10,"CCC(=O)N1CC(N2Cc3c(F)c(Cl)cc(C(C)n4nc(C)c5c(N)ncnc54)c3OC(C)C2)C1 (stereo not shown) [Example 76, 1-{1-[7-chloro-6-fluoro-2-methyl-4-(1-propionylazetidin-3-yl)-2,3,4,5-tetrahydro-1,4-benzoxazepin-9-yl]ethyl}-3-methyl-1H-pyrazolo[3,4-d]pyrimidin-4-amine]",≤ 500
11,"Cc1nn([C@@H](C)c2cc(Cl)c(F)c3c2O[C@@H](C)CN(C2CN(C[C@H](C)O)C2)C3)c2ncnc(N)c12 [Example 85, (2S)-1-{3-[(2S)-9-[(1S)-1-(4-amino-3-methyl-1H-pyrazolo[3,4-d]pyrimidin-1-yl)ethyl]-7-chloro-6-fluoro-2-methyl-2,3-dihydro-1,4-benzoxazepin-4(5H)-yl]azetidin-1-yl}propan-2-ol]",≤ 500

# Continued, values first:
row,IC50 [nM],SMILES
1,≤ 500,"Cc1c(Cl)cc(C(C)n2nc(C)c3c(N)ncnc32)c2c1CN(C1CCCC1)CCO2 (stereo not shown) [Example 6, 1-[1-(7-Chloro-4-cyclopentyl-6-methyl-2,3,4,5-tetrahydro-1,4-benzoxazepin-9-yl)ethyl]-3-methyl-1H-pyrazolo[3,4-d]pyrimidin-4-amine bis(trifluoroacetate)]"
2,≤ 500,"Cc1c(Cl)cc(C(C)n2nc(C)c3c(N)ncnc32)c2c1CN(C(=O)CC#N)CCO2 (stereo not shown) [Example 12, 3-[9-[1-(4-Amino-3-methyl-1H-pyrazolo[3,4-d]pyrimidin-1-yl)ethyl]-7-chloro-6-methyl-2,3-dihydro-1,4-benzoxazepin-4(5H)-yl]-3-oxopropanenitrile trifluoroacetate]"
3,500 to 1000,"Cc1c(Cl)cc(C(C)n2nc(C)c3c(N)ncnc32)c2c1CN(S(=O)(=O)C1CC1)CCO2 (stereo not shown) [Example 18, 1-{1-[7-Chloro-4-(cyclopropylsulfonyl)-6-methyl-2,3,4,5-tetrahydro-1,4-benzoxazepin-9-yl]ethyl}-3-methyl-1H-pyrazolo[3,4-d]pyrimidin-4-amine Trifluoroacetate]"
4,≤ 500,"CCC(=O)N1CCOc2c(C(C)n3nc(C)c4c(N)ncnc43)cc(Cl)c(C)c2C1 (stereo not shown) [Example 20, 1-[1-(7-Chloro-6-methyl-4-propionyl-2,3,4,5-tetrahydro-1,4-benzoxazepin-9-yl)ethyl]-3-methyl-1H-pyrazolo[3,4-d]pyrimidin-4-amine Trifluoroacetate]"
5,≤ 500,"COCC(=O)N1CCOc2c(C(C)n3nc(C)c4c(N)ncnc43)cc(Cl)c(C)c2C1 (stereo not shown) [Example 21, 1-{1-[7-Chloro-4-(methoxyacetyl)-6-methyl-2,3,4,5-tetrahydro-1,4-benzoxazepin-9-yl]ethyl}-3-methyl-1H-pyrazolo[3,4-d]pyrimidin-4-amine Trifluoroacetate]"
6,≤ 500,"Cc1c(Cl)cc(C(C)n2nc(C)c3c(N)ncnc32)c2c1CN(c1ncc(C#N)s1)CCO2 (stereo not shown) [Example 23, 2-[9-[1-(4-Amino-3-methyl-1H-pyrazolo[3,4-d]pyrimidin-1-yl)ethyl]-7-chloro-6-methyl-2,3-dihydro-1,4-benzoxazepin-4(5H)-yl]-1,3-thiazole-5-carbonitrile Trifluoroacetate]"
7,≤ 500,"CC(=O)N1CC(N2CCOc3c(C(C)n4nc(C)c5c(N)ncnc54)cc(Cl)c(F)c3C2)C1 (stereo not shown) [Example 34, 1-{1-[4-(1-Acetylazetidin-3-yl)-7-chloro-6-fluoro-2,3,4,5-tetrahydro-1,4-benzoxazepin-9-yl]ethyl}-3-methyl-1H-pyrazolo[3,4-d]pyrimidin-4-amine]"
8,≤ 500,"Cc1nn(C(C)c2cc(Cl)c(F)c3c2O[C@@H](C)CN(C2CC(C(=O)O)C2)C3)c2ncnc(N)c12 (stereo partly shown) [Example 41, 3-[9-[1-(4-Amino-3-methyl-1H-pyrazolo[3,4-d]pyrimidin-1-yl)ethyl]-7-chloro-6-fluoro-2-methyl-2,3-dihydro-1,4-benzoxazepin-4(5H)-yl]cyclobutanecarboxylic Acid Trifluoroacetate]"
9,≤ 500,"Cc1nn(C(C)c2cc(Cl)c(F)c3c2OCCN(C2CN(C(=O)N(C)C)C2)C3)c2ncnc(N)c12 (stereo not shown) [Example 73, 3-[9-[1-(4-amino-3-methyl-1H-pyrazolo[3,4-d]pyrimidin-1-yl)ethyl]-7-chloro-6-fluoro-2,3-dihydro-1,4-benzoxazepin-4(5H)-yl]-N,N-dimethylazetidine-1-carboxamide]"
10,500 to 1000,"Cc1nn(C(C)c2cc(Cl)c(F)c3c2OCCN(C2CN(S(=O)(=O)N(C)C)C2)C3)c2ncnc(N)c12 (stereo not shown) [Example 74, 3-[9-[1-(4-amino-3-methyl-1H-pyrazolo[3,4-d]pyrimidin-1-yl)ethyl]-7-chloro-6-fluoro-2,3-dihydro-1,4-benzoxazepin-4(5H)-yl]-N,N-dimethylazetidine-1-sulfonamide]"
11,≤ 500,"Cc1nn([C@@H](C)c2cc(Cl)c(F)c3c2O[C@@H](C)CN(C2CN(C[C@@H](C)O)C2)C3)c2ncnc(N)c12 [Example 86, (2R)-1-{3-[(2S)-9-[(1S)-1-(4-amino-3-methyl-1H-pyrazolo[3,4-d]pyrimidin-1-yl)ethyl]-7-chloro-6-fluoro-2-methyl-2,3-dihydro-1,4-benzoxazepin-4(5H)-yl]azetidin-1-yl}propan-2-ol]"

# Same assay, conditions: SUDHL-6 cells, 3 days, Cell Titer-GLO
row,IC50 [nM],SMILES
1,≤ 500,"Cc1nn(C(C)c2cc(Cl)c(F)c3c2O[C@@H](C)CN(C2CC(C(=O)O)C2)C3)c2ncnc(N)c12 (stereo partly shown) [Example 42, 3-[9-[1-(4-Amino-3-methyl-1H-pyrazolo[3,4-d]pyrimidin-1-yl)ethyl]-7-chloro-6-fluoro-2-methyl-2,3-dihydro-1,4-benzoxazepin-4(5H)-yl]cyclobutanecarboxylic Acid Trifluoroacetate]"
2,≤ 500,"Cc1nn(C(C)c2cc(Cl)c(C#N)c3c2OC(C)CN(C2CN(CC(N)=O)C2)C3)c2ncnc(N)c12 (stereo not shown) [Example 51, 2-{3-[9-[1-(4-Amino-3-methyl-1H-pyrazolo[3,4-d]pyrimidin-1-yl)ethyl]-7-chloro-6-cyano-2-methyl-2,3-dihydro-1,4-benzoxazepin-4(5H)-yl]azetidin-1-yl}acetamide]"
3,≤ 500,"Cc1nn(C(C)c2cc(Cl)c(C#N)c3c2O[C@@H](C)CN(C2CN(CCO)C2)C3)c2ncnc(N)c12 (stereo partly drawn) [Example 57, (2S)-9-[1-(4-Amino-3-methyl-1H-pyrazolo[3,4-d]pyrimidin-1-yl)ethyl]-7-chloro-4-[1-(2-hydroxyethyl)azetidin-3-yl]-2-methyl-2,3,4,5-tetrahydro-1,4-benzoxazepine-6-carbonitrile]"
